{
  "source": "patent US9943542B2",
  "about": "“Compositions and methods for obtaining an improved lung function” (PHARMALUNDENSIS AB, priority 2013, dated 2018)",
  "key": {"[1]": {"molecular_target": "T1, sodium/iodide symporter (NIS) (Homo sapiens, UniProt Q92911)", "T1 construct": "host or cells: thyroid gland of human subjects (in vivo)", "T1 sequence (Q92911 1-643)": "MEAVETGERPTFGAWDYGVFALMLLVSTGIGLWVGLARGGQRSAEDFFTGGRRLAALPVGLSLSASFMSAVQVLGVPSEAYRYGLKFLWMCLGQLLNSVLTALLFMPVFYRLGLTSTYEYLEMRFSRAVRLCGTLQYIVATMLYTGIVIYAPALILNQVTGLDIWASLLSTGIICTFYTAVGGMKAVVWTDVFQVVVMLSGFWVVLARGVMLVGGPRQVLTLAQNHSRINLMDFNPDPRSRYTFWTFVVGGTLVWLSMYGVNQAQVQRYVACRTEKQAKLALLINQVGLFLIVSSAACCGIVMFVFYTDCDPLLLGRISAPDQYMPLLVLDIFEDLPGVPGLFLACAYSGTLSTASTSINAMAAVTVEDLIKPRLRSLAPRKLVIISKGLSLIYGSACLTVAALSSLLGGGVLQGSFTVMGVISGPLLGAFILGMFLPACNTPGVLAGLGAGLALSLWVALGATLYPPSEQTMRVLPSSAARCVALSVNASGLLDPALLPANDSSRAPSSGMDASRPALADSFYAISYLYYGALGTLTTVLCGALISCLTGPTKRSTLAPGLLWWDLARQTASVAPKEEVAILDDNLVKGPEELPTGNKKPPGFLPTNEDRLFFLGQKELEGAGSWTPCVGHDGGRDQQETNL", "conditions": "humans; cited from earlier work"}, "[2]": {"test_system": "lung function (FEV1) of man with moderately severe COPD", "experiment": "Sequential 2-week treatments in one person with moderately severe COPD", "type": "in vivo, human", "procedure": "After having stable lung function for around a month, they took 2.73 g activated charcoal in water daily for 2 weeks. […] After that, […] instead took 270 mg I2 daily in a vegetable capsule daily for 2 weeks. […] Thereafter, […] instead took 100 mg potassium perchlorate daily for 2 weeks. […] Following this, […] instead took 3 g IAC (prepared according to example 2, and consisting of 2.73 g activated charcoal with 270 mg iodine) daily for 2 weeks. […] Finally, they took a combination of 100 mg potassium perchlorate and 3 g IAC daily for 2 weeks."}, "[3]": {"conditions": "in vivo; cited from earlier work"}, "[4]": {"test_system": "patients with stable chronic bronchitis", "conditions": "cited from earlier work"}, "[5]": {"test_system": "patients with COPD", "conditions": "administered orally; cited from earlier work"}, "[6]": {"molecular_target": "human sodium/iodide symporter (Homo sapiens, UniProt Q92911)", "conditions": "versus perchlorate, on a molar concentration basis in serum; cited from earlier work"}},
  "data": [
    {"molecule": "[O-][Cl+3]([O-])([O-])O", "note": "[potassium perchlorate]", "values": [
      {"measurement": "level that can temporarily inhibit the thyroid gland's ability to adsorb iodine from the bloodstream", "setting": "[1]", "result": "above 0.007 mg/(kg·d)"},
      {"measurement": "effect on lung function (FEV1), in words", "setting": "[2]; daily for 2 weeks, one patient", "result": "did not improve the lung function at all"},
      {"measurement": "metabolism and storage in the body", "setting": "[3]", "result": "neither metabolised nor stored in the body"}
    ]},
    {"molecule": "Iodinated glycerol", "values": [
      {"measurement": "improvement in pulmonary function", "setting": "[4]; 16 weeks treatment", "result": "lack significant improvement"},
      {"measurement": "side effects", "setting": "[4]; human, in vivo", "result": "side effects such as iodine poisoning"}
    ]},
    {"molecule": "II", "note": "[I2, iodine]", "values": [
      {"measurement": "effect on lung function", "setting": "[5]", "result": "does not improve the lung function"},
      {"measurement": "effect on lung function (FEV1), in words", "setting": "[2]; in vivo", "result": "did not improve their lung function"}
    ]},
    {"molecule": "N#C[S-].[Na+]", "note": "[thiocyanate, Thiocyanate]", "values": [
      {"measurement": "relative potency for inhibiting iodide uptake by the sodium/iodide symporter", "setting": "[6]", "result": "lower than that of perchlorate"}
    ]}
  ]
}
